The text below walks through data of PubChem BioAssay AID1645848.

The conditions of this data set: buffer; pH 7.4; 6.0 h; 150.0 µM.

In brackets after ≈: the same amount, converted by molar mass. Bounds are passed on as bounds.

For orientation: kinetic solubility means the concentration staying in solution when a stock, usually in DMSO, is diluted into the medium. Compound `CCC(CC)c1cc([C@H]2CN3CC[C@H]2C[C@@H]3CNC(=O)Cc2cccs2)nc(-c2ccncc2)n1` registered a kinetic solubility of more than 72 µg/mL. `O=C(C1CCN(c2nc(-c3ccc(Br)cc3)cs2)CC1)N1CCOCC1`: the solubility (kinetic) is 7.27 µg/mL (≈ 16.7 µM).

Regarding `Cc1ccc(NC(=O)c2cc(-c3ccc(C)o3)nc3ccccc23)nc1`, the solubility (kinetic) is less than 1 µg/mL. The compound `CN(C)C(=O)c1nc(-c2ccc(Cl)nc2)c2ccccn12` showed a kinetic solubility of 27.6 µg/mL (≈ 91.8 µM).

As to `CCNC(=O)c1ccc(-c2ccc3ncnc(NCC4CCCO4)c3c2)o1` (stereo unspecified), the solubility (kinetic) came to 25 µg/mL (≈ 68.3 µM). The solubility kinetic values of the last two compounds are within 1.5-fold of each other. `O=C(CNC12CC3CC(CC(C3)C1)C2)c1ccc(Cl)cc1` came in with a kinetic solubility of 34.6 µg/mL (≈ 114 µM). `N#Cc1nc(-c2cccc3ccccc23)oc1NC1COC1` displayed a kinetic solubility of less than 1 µg/mL.

Consider `COc1ccc(-c2csc(NC(=O)c3ccccc3NS(=O)(=O)c3ccc(C)cc3)n2)cc1`, for which the solubility (kinetic) was less than 1 µg/mL. The result for `COc1cccc(C(=O)Nc2nc(-c3nnn(-c4ccccc4C(F)(F)F)c3C)ns2)c1` reads 1.03 µg/mL (≈ 2.24 µM). The same measure for `O=C(NCc1ccco1)c1nc2nc(-c3cccs3)cc(C(F)(F)F)n2n1`: 4.51 µg/mL (≈ 11.5 µM). The result for `CC(=O)c1c(C)[nH]c(C(=O)Nc2cccc(S(=O)(=O)Nc3ccc(Br)c(F)c3)c2)c1C` reads less than 1 µg/mL. Consider `O=C1CCCC2=C1C(c1[nH]ncc1Cl)N=C(Nc1nc3cc([S+](=O)([O-])N4CCCC4)ccc3o1)N2` (stereo unspecified), for which the kinetic solubility came out at 36.2 µg/mL (≈ 70.2 µM). In the case of `Fc1cc(Nc2nc(-c3ccncc3)nc3ccccc23)ccc1-c1cccc(OC(F)(F)F)c1`, the kinetic solubility was less than 1 µg/mL. As for `COCCCNC(=O)c1cc2cc(S(=O)(=O)N(C)C)ccc2n1C`, the kinetic solubility was 42.6 µg/mL (≈ 120 µM).

Consider `Cc1cc(NC(=O)c2ccc(NC(=O)Cc3ccc(Cl)c(Cl)c3)cc2)no1`, for which the kinetic solubility came out at 1.43 µg/mL (≈ 3.55 µM). `COc1ccc2c(c1)CCc1c-2n[nH]c1C(=O)N1CCc2c(nc3cc(-c4ccccc4)[nH]n3c2=O)C1`: the solubility (kinetic) was less than 1 µg/mL. The compound `CNC(=O)c1nn(C)c2c1C(C)(C)Cc1cnc(Nc3ccc(N4CCN(C)CC4)cc3)nc1-2` registered a solubility (kinetic) of more than 68 µg/mL. Take `CNC(=O)c1ccc(-c2cnc3cnc(C(=O)N(C)c4ccc(Cl)cc4)cn23)cc1`: the kinetic solubility is more than 62 µg/mL. As for `CN(C)c1ccc(-c2cc[nH]c(=O)c2N)cc1`, the solubility (kinetic) is more than 34 µg/mL. `c1ccc2c(N3CCOCC3)nc(-c3ccncc3)nc2c1` showed a kinetic solubility of more than 43 µg/mL.

Take `CCN1CCN(CCCOc2ccc(-c3ccccc3)cc2)CC1`: the kinetic solubility is more than 48 µg/mL.

Compound `Cc1ccc(S(=O)(=O)Nc2cnccc2C(=O)Nc2nc(-c3ccc(C)c(C)c3)cs2)cc1` came in with a solubility (kinetic) of less than 1 µg/mL.

The compound `COc1ccc(-c2nc(CS(=O)CC(=O)N3CCC4(CC3)OCCO4)c(C)o2)cc1` (stereo unspecified) gave a solubility (kinetic) of more than 64 µg/mL. `O=C(Nc1nc(-c2ccccc2)cs1)c1ccncc1NS(=O)(=O)c1ccc(F)cc1` displayed a solubility (kinetic) of 45.8 µg/mL (≈ 101 µM).

Turning to `CCN1C(=O)c2ccccc2S(=O)c2ccc(NC(=O)Cc3ccc(F)cc3)cc21` (stereo unspecified), the kinetic solubility is less than 1 µg/mL. The same measure for `COc1ccccc1CNc1ccc(N2CCCCC2)cc1`: 12.9 µg/mL (≈ 43.5 µM); for `CC1=C(C(=O)Nc2nncs2)C(c2[nH]ncc2Cl)N=C(Nc2nc3ccccc3o2)N1` (stereo unspecified): 34.6 µg/mL (≈ 75.8 µM); for `COCCNS(=O)(=O)c1cc(-c2nn3c(C)nnc3c3ccccc23)ccc1C`: 29 µg/mL (≈ 70.4 µM). Take `COc1cc(-c2nc(Cn3nnc(C(=O)Nc4cc(C)cc(C)c4)c3C)c(C)o2)cc(OC)c1OC`: the kinetic solubility was less than 1 µg/mL. As to `COc1ccccc1C(=O)Nc1ccccc1C(=O)Nc1cccc(C(F)(F)F)c1`, the kinetic solubility is less than 1 µg/mL.

Consider `CCNc1oc(-c2cccc3ccccc23)nc1C#N`, for which the solubility (kinetic) is less than 1 µg/mL.

Consider `CCOc1ccc(CCNC(=O)c2cc3cccnc3n2Cc2cccc(C)c2)cc1OCC`, for which the kinetic solubility is less than 1 µg/mL. `COc1ccc(S(=O)(=O)N2CCCCCC2)cc1NC(=O)Cc1n[nH]c(=O)c2ccccc12` had a kinetic solubility of 8.46 µg/mL (≈ 18 µM). The same measure for `FC(F)(F)c1cccc(N2CCN(C(=S)Nc3cc4ccccc4cn3)CC2)c1`: less than 1 µg/mL.

`O=C(Nc1nnc(-c2ccc(Cl)cc2)o1)c1ccc(Cl)c(Cl)c1` gave a solubility (kinetic) of less than 1 µg/mL.

`Cc1cccc(C)c1C(=O)Nc1cccc([S+](=O)([O-])N(C)C)c1` had a solubility (kinetic) of 41.4 µg/mL (≈ 124 µM).

With `COc1cccc(CNCc2cccn2-c2nnc(N3CCN(c4ccccc4)CC3)s2)c1`, the solubility (kinetic) came to 5.15 µg/mL (≈ 11.2 µM). In turn, `O=C(Cc1cccs1)NCc1nnc2ccc(-c3ccccc3)nn12` yielded a solubility (kinetic) of 22 µg/mL (≈ 63 µM). This solubility kinetic lies about 4.3-fold higher than the previous one. `CCN(CC)[S+](=O)([O-])c1cc(NC(=O)c2[nH]c(C)c(C(C)=O)c2C)ccc1OC`: the kinetic solubility stood at 18.1 µg/mL (≈ 43 µM).

With `Nc1ncnc(N2CCc3ccccc32)c1[N+](=O)[O-]`, the solubility (kinetic) was less than 1 µg/mL. In the case of `NC(=O)C1CCN(c2nnc(-c3ccc4c(c3)OCCCO4)s2)CC1`, the kinetic solubility was 9.84 µg/mL (≈ 27.3 µM). `Ic1ccccc1CNC1C2CCN(CC2)C1C(c1ccccc1)c1ccccc1` (stereo unspecified): the solubility (kinetic) is more than 75 µg/mL. The same measure for `COc1ccc(-n2nc(C3CCCN(C(=O)c4ccccc4)C3)[nH]c2=O)cc1` (stereo unspecified): more than 56 µg/mL; for `Cc1ccc(C(=O)N2CCc3c(nc4cc(-c5ccccc5)[nH]n4c3=O)C2)cn1`: 8.67 µg/mL (≈ 22.5 µM); for `Fc1cc(Nc2nc(-c3ccncc3)nc3ccccc23)ccc1OC(F)(F)F`: less than 1 µg/mL. Compound `Clc1cccc(-c2ccc(-c3nnc(CCCc4ccc5cccnc5n4)o3)cc2)c1` gave a solubility (kinetic) of less than 1 µg/mL. In the case of `CCS(=O)(=O)c1cccc(C(=O)Nc2ccc(-c3nc4ccccc4s3)c(O)c2)c1`, the solubility (kinetic) was less than 1 µg/mL. With `CCOc1ccc(-c2nnc(SCC(=O)NCc3ccccc3Cl)o2)cc1`, the solubility (kinetic) is less than 1 µg/mL.

The compound `Cc1ccc(S(=O)(=O)Nc2ccccc2C(=O)Nc2nc(-c3ccccc3)cs2)cc1` had a solubility (kinetic) of less than 1 µg/mL. For the compound `COc1cccc(N2CCN(c3ncc4c(n3)CCN(Cc3ccc(Br)cc3)C4)CC2)c1`, the solubility (kinetic) is less than 1 µg/mL. The same measure for `CC1=C(C(=O)Nc2ccccc2Cl)C(c2ccccc2Br)N=C(Nc2nc3ccccc3o2)N1` (stereo unspecified): less than 1 µg/mL; for `CS(=O)(=O)c1ccc(-c2cnc(NCc3ccco3)n3cnnc23)cc1`: more than 37 µg/mL. Regarding `CC(NCc1ccc2c(c1)nc(NC(=O)c1ccc(-c3cn[nH]c3)s1)n2CC(C)(C)O)C(C)(C)C` (stereo unspecified), the kinetic solubility is more than 73 µg/mL. The same measure for `CCc1ccccc1OC[C@@H](O)CN[C@H]1CCCc2ccccc21`: 36 µg/mL (≈ 111 µM); for `CCOc1ccc(NC(=O)CSC2=Nc3ccccc3C3=NC(CC(=O)NCc4cccs4)C(=O)N23)cc1` (stereo unspecified): 23.8 µg/mL (≈ 43.4 µM); for `COc1cccc(C(=O)Nc2nc(-c3nnn(-c4cccc(Cl)c4C)c3C)ns2)c1`: less than 1 µg/mL.

In turn, `COc1ccccc1C(=O)NC1CCCc2c1[nH]c1c(Cl)cccc21` (stereo unspecified) displayed a solubility (kinetic) of less than 1 µg/mL. On to `COc1ccc(C(=O)NC2CCN(c3cnn(CC4CC4)c(=O)c3)CC2)cc1`, for which the kinetic solubility amounted to 8.61 µg/mL (≈ 22.5 µM).

As for `Cc1cc(CNC(=O)c2ccc3c(c2)n(CC2CC2)c(=O)n3C2CCCCC2)on1`, the solubility (kinetic) turned out to be 15.6 µg/mL (≈ 38.3 µM). As for `CC[C@H]1/C=C\C=C/C[C@@H](C)[C@H](O)[C@@](C)(O)C(=O)[C@@H](C)[C@H](O)[C@@H](C)C(=O)[C@@H](C)[C@H](O)[C@@H](C)/C=C\C(=O)O[C@@H]2[C@H](C)[C@H](CC1)O[C@]1(CC[C@H](C)[C@H](C[C@@H](C)O)O1)[C@H]2C`, the solubility (kinetic) is less than 1 µg/mL.

For `Cc1ccccc1-c1nc(CN2CCC(C(=O)NCCCN3CCOCC3)CC2)c(C)o1`, the kinetic solubility is more than 65 µg/mL. With `COC(=O)c1ccc(Oc2nc3c(c(=O)n(C)c(=O)n3C)n2CCC(C)C)cc1`, the kinetic solubility is less than 1 µg/mL.

On to `O=C1Nc2ccccc2/C1=C\c1ccc(O)c(F)c1`, for which the kinetic solubility turned out to be 9.29 µg/mL (≈ 36.4 µM).

Compound `NC(=O)C1CCN(c2ncc(-c3ccc4c(c3)OCO4)s2)CC1` showed a kinetic solubility of 5.31 µg/mL (≈ 16 µM). Against the preceding compound, the solubility kinetic is about 1.7-fold lower. The same measure for `Brc1ccc(-c2csc(N3CCC(c4nn[nH]n4)CC3)n2)cc1`: more than 58 µg/mL; for `CN(Cc1cnc2nc(N)nc(N)c2n1)c1ccc(C(=O)N[C@@H](CCC(=O)O)C(=O)O)cc1`: more than 67 µg/mL; for `O=C(NCCCn1ccnc1)c1nc(-c2ccccc2)cc2[nH]ccc12`: more than 77 µg/mL. Compound `CCOc1ccc(Nc2nc(C)c(NC(=O)c3ccc(C)cc3)c(Nc3ccc(OCC)cc3)n2)cc1` showed a kinetic solubility of less than 1 µg/mL. The compound `CC(C)c1ccc(Nc2c(-c3ccccn3)nc3ccccn23)cc1` yielded a solubility (kinetic) of less than 1 µg/mL. Regarding `Fc1cnc(-c2ccccc2C(F)F)nc1NCC1CCN(c2cnccn2)CC1`, the solubility (kinetic) was less than 1 µg/mL.

For `CCOC(=O)C1CCN(c2nc(-c3ccc(Br)cc3)cs2)CC1`, the kinetic solubility was less than 1 µg/mL. The result for `CN(C(=O)CSc1nc2ccc(NC(=O)c3ccc(F)cc3)cc2s1)c1ccccc1` reads less than 1 µg/mL. Take `Clc1ccccc1-c1nnc2sc(-c3ccc4c(c3)OCO4)nn12`: the kinetic solubility was less than 1 µg/mL.

As to `COc1cc2c(c(OC)c1OC)-c1ccc(OC)c(=O)cc1[C@@H](NC(C)=O)CC2`, the solubility (kinetic) came to 21 µg/mL (≈ 52.5 µM).

`Cc1cnc(-c2ccccc2C(C)C)nc1NCC1CCN(C2COC2)CC1` registered a kinetic solubility of more than 56 µg/mL. The result for `CCC(=O)NC(c1ccc(OC)cc1)c1cc(Cl)c2cccnc2c1O` (stereo unspecified) reads less than 1 µg/mL. `O=C1Nc2ccc(C(=O)c3ccco3)cc2/C1=C/c1cc(Cl)c(O)c(Cl)c1`: the solubility (kinetic) stood at 9.16 µg/mL (≈ 22.9 µM). Consider `Cc1ccnc(NC(=S)N2CCC(Nc3cccc(C(F)(F)F)c3)CC2)c1`, for which the kinetic solubility turned out to be 6.4 µg/mL (≈ 16.2 µM). Compound `O=C(Nc1ncc(Cc2cccc(C(F)(F)F)c2)s1)c1ccc(-c2cccc([N+](=O)[O-])c2)o1` displayed a solubility (kinetic) of less than 1 µg/mL.

On to `Cc1ccc(C(=O)Nc2ccc(CN3CCN(C)CC3)c(C(F)(F)F)c2)cc1C#Cc1cnc2cccnn12`, for which the kinetic solubility was less than 1 µg/mL. `Cn1nnnc1Sc1ncnc2scc(Br)c12`: the solubility (kinetic) amounted to 1.27 µg/mL (≈ 3.85 µM). As to `CCOc1ccccc1C(=O)Nc1cccnc1C(=O)Nc1cccc(S(=O)(=O)C(F)(F)F)c1`, the solubility (kinetic) was less than 1 µg/mL. Regarding `O=C(c1cccc(F)c1)N1CCC2(CCN(Cc3cc(C(F)(F)F)cc(C(F)(F)F)c3)CC2)CC1`, the solubility (kinetic) was 3.62 µg/mL (≈ 7.2 µM). In turn, `Cc1ccc(S(=O)(=O)Nc2ccccc2C(=O)Nc2cnc(-c3ccccc3)cn2)cc1` came in with a kinetic solubility of less than 1 µg/mL. Consider `CC(O)(C#Cc1ccc2c(c1)N(c1nc(N)ncc1Cl)CC2)c1nccs1` (stereo unspecified), for which the kinetic solubility amounted to 11.9 µg/mL (≈ 29.9 µM). With `Cc1ccc(S(=O)(=O)Nc2nc3ccc(C)cc3nc2Nc2ccc3c(c2)OCO3)cc1`, the solubility (kinetic) is more than 66 µg/mL.
